Reference: patent US20080194546A1, “Pyrido-, Pyrazo- and Pyrimido-Pyrimidine Derivatives as mTOR Inhibitors” (KuDOS Pharmaceuticals Limited, priority 2005, published 2008)
Where two headings read alike, the source gives them in different places.

Columns and labels:
mTOR = molecular target: T1, mTOR (Homo sapiens, UniProt P42345); assay: Biological Assay: mTOR enzyme activity, mTOR immunoprecipitated from HeLa cell cytoplasmic extract, recombinant PHAS-1 as substrate; format: biochemical
T1 construct: mTOR protein was isolated from HeLa cell cytoplasmic extract by immunoprecipitation; endogenous in cells; host or cells: HeLa cell cytoplasmic extract (immunoprecipitate)

T47D cells = assay: Cell Proliferation Assay (GI50), sulforhodamine B (SRB) assay; format: cell-based; settings: Homo sapiens, 120 hours, SRB
Protocol: Cell growth was assessed using the sulforhodamine B (SRB) assay (A). T47D (ECACC, 85102201) cells were routinely passaged in RPMI (Invitrogen, 42401018) plus 10% foetal calf serum (FCS), 1% L-glutamine (Gibco BRL, 25030) to a confluence not greater than 80%. To undertake the assay, T47D cells were seeded at 2.5×10^3 cells/well in […] RPMI plus 10% foetal calf serum, 1% L-glutamine in 96 well plates (Costar, 3904) and incubated at 37° C. (+5% CO2) in a humidified incubator. Once the cells had fully adhered (typically following 4-5 hours incubation) the plate was removed from the incubator and 10 μL of the diluent added to the control wells (A1-12 and B1-12). Compound was prepared in a six point semi-log dilution at 10× the final concentration required e.g. for a 6 point range of 30 μM to 100 nM in semi-log steps dilution started at 300 μM in stock plate. Dosing was completed by addition of 10 μL of compound at highest concentration to C1-12 through to the lowest concentration in H1-12. The plates were then incubated for 120 hours prior to SRB analysis.
Upon completion of incubation, media was removed and the cells fixed with […] of ice cold 10% (w/v) trichloroacetic acid. The plates were incubated at 4° C. for 20 minutes and then washed four times with water. Each well of cells was then stained with 100 μl of 0.4% (w/v) SRB (Sulforhodamine B, Sigma, Poole, Dorset, UK, Catalogue number S-9012) in 1% acetic acid for 20 minutes before washing four times with 1% acetic acid. Plates were then dried for 2 hours at room temperature. The dye from the stained cells was solubilized by the addition of 100 μl of 10 mM Tris Base into each well. Plates were gently shaken and left at room temperature for 30 minutes before measuring the optical density at 564 nm on a Microquant microtiter plate reader. The concentration of inhibitor eliciting a 50% reduction in growth (GI50) was determined by analysis of staining intensity of the treated cells as a percentage of the vehicle control wells using Excelfit software.
(A) Skehan, P., Storung, R., Scudiero, R., Monks, A., McMahon, J., Vistica, D., Warren, J. T., Bokesch, H., Kenny, S. and Boyd, M. R. (1990) New […] cytotoxicity assay for anticancer-drug screening. J. Natl. Cancer Inst. 82, 1107-1112.

[1] = molecular target: recombinant mTOR (FLAG-tagged, amino acid residues 1362 to 2549) (Homo sapiens, UniProt P42345); assay: Alternative Enzyme Assay: AlphaScreen, inhibition of phosphorylation by recombinant mTOR; format: biochemical
[2] = test system: phosphorylation of Serine 473 in Akt in MDA-MB-468 cells; assay: In Vitro phospho-Ser473 Akt Assay (Acumen Explorer); format: cell-based; settings: Homo sapiens, MDA-MB-468 cells
[3] = Biological Assay, upper bounds, read-out: IC50 values against mTOR
[4] = Alternative Enzyme Assay, upper bounds, read-out: IC50 values against mTOR
[5] = Alternative Enzyme Assay, read-out: IC50 values against mTOR
[6] = 2 hours, read-out: IC50, phospho-Ser473 Akt assay (cellular IC50, measured by pAkt)
[7] = mTOR from HeLa extract, PHAS-1 substrate, read-out: IC50, tested in the Biological Assay
[8] = compounds of Formula I(B), read-out: IC50 values against mTOR (phospho-Ser473 Akt assay)
[9] = AlphaScreen, ATP 20 μM, read-out: IC50, tested in Alternative Enzyme Assay

IC50 [1, 4]	IC50 [1, 5]	IC50 [2, 6]	Structure (SMILES)	further results
< 10000 nM	< 300 nM	< 25000 nM	COc1ccc(-c2ccc3c(N4CCOCC4)nc(-c4cccc(C#N)c4)nc3n2)cc1CO [Example 9j]	
	< 300 nM	< 2500 nM	COCc1cccc(-c2nc(N3CCOCC3)c3ccc(-c4ccc(OC)c(CO)c4)nc3n2)c1 [Example 9h]	
	< 100 nM		COc1ccc(-c2ccc3c(N4CCOC[C@@H]4C)nc(N4C[C@@H](C)O[C@@H](C)C4)nc3n2)cc1CO [Example 11b]	IC50 (mTOR; [7]): 1.85 nM; IC50 [2, 8]: < 100 nM
	< 300 nM	< 2500 nM	COc1ccc(-c2ccc3c(N4CCOCC4)nc(-c4cccc(N)c4)nc3n2)cc1CO [Example 9l]	
	< 300 nM		C[C@H]1COCCN1c1nc(N2CCOC[C@@H]2C)c2ccc(-c3ccc(F)c(C#N)c3)nc2n1 [Example 11av, 5-[2,4-bis-((S)-3-methyl-morpholin-4-yl)-pyrido[2,3-d]pyrimidin-7-yl]-2-fluoro-benzonitrile]	IC50 [2, 8]: < 300 nM
	< 300 nM		CCC1CCCCN1c1nc(N2CCOC[C@@H]2C)c2ccc(-c3ccc(OC)c(CO)c3)nc2n1 (stereo partly drawn) [Example 11c]	IC50 (mTOR; [7]): 1.84 nM; IC50 [2, 8]: < 100 nM
	< 300 nM		C[C@H]1COCCN1c1nc(N2CCOC[C@@H]2C)c2ccc(-c3cccc(Cl)n3)nc2n1 [Example 11v]	IC50 [1, 9]: 180 nM; IC50 ([2]; compounds of Formula I(B), upper bounds, read-out: IC50 values against mTOR (phospho-Ser473 Akt assay)): < 11000 nM
< 1000 nM		< 25000 nM	COc1ccc(-c2ccc3c(N4CCOCC4)nc(-c4cccc(C(F)(F)F)c4)nc3n2)cc1CO [Example 9r]	
	< 100 nM		COc1ccc(-c2ccc3c(N4CCOC[C@@H]4C)nc(-c4cccc(N)c4)nc3n2)cc1CO [Example 29f]	IC50 [1, 9]: 96 nM; IC50 [2, 8]: < 300 nM
< 10000 nM			COc1ccc(-c2ccc3c(N4CCOCC4)nc(-c4ccc(OC)c(CO)c4)nc3n2)cc1CO [Example 9q]	
< 10000 nM	< 300 nM	< 2500 nM	COc1ccc(-c2ccc3c(N4CCOCC4)nc(-c4cccc(O)c4)nc3n2)cc1CO [Example 9i]	
	< 300 nM	< 2500 nM	COc1ccc(-c2ccc3c(N4CCOCC4)nc(-c4cccc(C(N)=O)c4)nc3n2)cc1CO [Example 9k]	
< 1000 nM		< 2500 nM	OCc1cccc(-c2nc(N3CCOCC3)c3ccc(-c4ccc(Cl)cc4)nc3n2)c1 [Example 9m]	
< 10000 nM			Cc1cccc(-c2nc(N3CCOCC3)c3ccc(-c4ccc(Cl)cc4)nc3n2)c1 [Example 9y]	
< 1000 nM		< 2500 nM	COc1ccc(-c2ccc3c(N4CCOCC4)nc(-c4cccc(CN)c4)nc3n2)cc1CO [Example 9n]	

Further lines, the compound ahead of its results:

Structure (SMILES)	IC50 [1, 4]	IC50 [1, 5]	IC50 [2, 6]	further results
COc1ccc(-c2ccc3c(N4CCOCC4)nc(N4C[C@@H](C)O[C@@H](C)C4)nc3n2)cc1CNCc1cccc([N+](=O)[O-])c1 [Example 8at]				IC50 (mTOR; [3]): < 1000 nM; GI50 (T47D cells; upper bounds): < 300 nM
COc1ccc(-c2ccc3c(N4CCOCC4)nc(N4C[C@@H](C)O[C@@H](C)C4)nc3n2)cc1CNCCO [Example 8d]				IC50 (mTOR; [3]): < 100 nM; GI50 (T47D cells; upper bounds): < 300 nM
COc1ccc(-c2ccc3c(N4CCOCC4)nc(N4C[C@@H](C)O[C@@H](C)C4)nc3n2)cc1CNC1CCCCCCC1 [Example 8n]				IC50 (mTOR; [3]): < 100 nM; GI50 (T47D cells): < 1000 nM
COc1ccc(-c2ccc3c(N4CCOCC4)nc(N4C[C@@H](C)O[C@@H](C)C4)nc3n2)cc1CNC(C)CO (stereo partly drawn) [Example 8aq]				IC50 (mTOR; [3]): < 100 nM; GI50 (T47D cells; upper bounds): < 300 nM
COc1ccc(-c2ccc3c(N4CCOCC4)nc(N4C[C@@H](C)O[C@@H](C)C4)nc3n2)cc1CNC1CCOCC1 [Example 8i]				IC50 (mTOR; [3]): < 100 nM; GI50 (T47D cells; upper bounds): < 300 nM
CNCc1cc(-c2ccc3c(N4CCOCC4)nc(N4C[C@@H](C)O[C@@H](C)C4)nc3n2)ccc1OC [Example 8f]				IC50 (mTOR; [3]): < 100 nM; GI50 (T47D cells; upper bounds): < 300 nM
CCOC(=O)C1CCCCC1NCc1cc(-c2ccc3c(N4CCOCC4)nc(N4C[C@@H](C)O[C@@H](C)C4)nc3n2)ccc1OC (stereo partly drawn) [Example 8ac]				IC50 (mTOR; [3]): < 100 nM; GI50 (T47D cells): < 1000 nM
COc1ccc(-c2ccc3c(N4CCOCC4)nc(N4C[C@@H](C)O[C@@H](C)C4)nc3n2)cc1CN[C@H](CO)CCSC [Example 8bd]				IC50 (mTOR; [3]): < 1000 nM; GI50 (T47D cells; upper bounds): < 300 nM
CCOCCCNCc1cc(-c2ccc3c(N4CCOCC4)nc(N4C[C@@H](C)O[C@@H](C)C4)nc3n2)ccc1OC [Example 8s]				IC50 (mTOR; [3]): < 1000 nM; GI50 (T47D cells): < 1000 nM
CCN(CC)CCCNCc1cc(-c2ccc3c(N4CCOCC4)nc(N4C[C@@H](C)O[C@@H](C)C4)nc3n2)ccc1OC [Example 8h]				IC50 (mTOR; [3]): < 100 nM; GI50 (T47D cells): < 1000 nM
COc1ccc(-c2ccc3c(N4CCOCC4)nc(-c4cc(N)cc(C(=O)O)c4)nc3n2)cc1CO [Example 9a]	< 10000 nM	< 300 nM	< 25000 nM	
C[C@@H]1CN(c2nc(N3CCOCC3)c3ccc(-c4cccc(/C=N/O)c4)nc3n2)C[C@H](C)O1 [Example 1bg]		< 300 nM	< 2500 nM	
CCOc1ccc(-c2ccc3c(N4CCOCC4)nc(N4C[C@@H](C)O[C@@H](C)C4)nc3n2)cc1 [Example 1br]	< 1000 nM		< 2500 nM	
C/C(=N/O)c1cccc(-c2ccc3c(N4CCOCC4)nc(N4C[C@@H](C)O[C@@H](C)C4)nc3n2)c1 [Example 1bh]		< 300 nM	< 25000 nM	
COc1ccc(-c2ccc3c(N4CCOCC4)nc(-c4cccc(C=O)c4)nc3n2)cc1CO [Example 9g]	< 10000 nM	< 300 nM	< 2500 nM	
CC(C)Oc1ccc(-c2ccc3c(N4CCOCC4)nc(N4C[C@@H](C)O[C@@H](C)C4)nc3n2)cc1 [Example 1bd]	< 10000 nM	< 300 nM	< 25000 nM	
C[C@H]1COCCN1c1nc(N2CCOCC2)c2ccc(-c3ccc(Cl)cc3)nc2n1 [Example 1be]	< 10000 nM	< 300 nM	< 2500 nM	
COc1ccc(-c2ccc3c(N4CCOCC4)ncnc3n2)cc1CO [Example 1bj]		< 300 nM	< 25000 nM	
COc1ccc(-c2ccc3c(N4CCOCC4)nc(-c4cccc(C)c4)nc3n2)cc1CO [Example 9d]	< 10000 nM	< 300 nM	< 25000 nM	
COc1cccc(-c2nc(N3CCOCC3)c3ccc(-c4ccc(OC)c(CO)c4)nc3n2)c1 [Example 9e]	< 10000 nM	< 300 nM	< 25000 nM	
N#Cc1cccc(-c2nc(N3CCOCC3)c3ccc(-c4ccc(Cl)cc4)nc3n2)c1 [Example 9ab]	< 10000 nM			
CC(Oc1ccc(-c2ccc3c(N4CCOCC4)nc(N4C[C@@H](C)O[C@@H](C)C4)nc3n2)cc1)c1ccccc1 (stereo partly drawn) [Example 1bv]	< 10000 nM			
Clc1ccc(-c2ccc3c(N4CCOCC4)nc(-c4cccc(-c5ccccc5)c4)nc3n2)cc1 [Example 9aa]	< 1000 nM		< 25000 nM	
C/C=C/COc1ccc(-c2ccc3c(N4CCOCC4)nc(N4C[C@@H](C)O[C@@H](C)C4)nc3n2)cc1 [Example 1bq]	< 1000 nM			
COc1ccc(-c2ccc3c(N4CCOCC4)nc(-c4ccco4)nc3n2)cc1CO [Example 9f]	< 10000 nM	< 300 nM	< 25000 nM	
C[C@@H]1CN(c2nc(N3CCOCC3)c3ccc(-c4ccoc4CO)nc3n2)C[C@H](C)O1 [Example 1bi]		< 300 nM	< 25000 nM	
C[C@@H]1CN(c2nc(N3CCOCC3)c3ccc(-c4ccc(Cl)cc4)nc3n2)C[C@H](C)O1 [Example 1b]				IC50 (mTOR; [3]): < 100 nM; IC50 [1, 9]: 57 nM
C[C@@H]1CN(c2nc(N3CCOCC3)c3ccc(-c4ccc(OCC(C)(C)CO)cc4)nc3n2)C[C@H](C)O1 [Example 1bp]	< 1000 nM			
